The subject of test [1] is human lung cancer cells A549. As to the kind of experiment: MTT growth inhibition, A549 cells. It counts as cell-based. Particulars: 72 h after treatment, read-out: Drug concentration (IC50) at which 50% cancer cells survived. An excerpt:
(§1) Cell lines and cell culture: human lung cancer cells A549 and H460, human breast cancer cells MCF-7 and MDA-MB-231, human gastric cancer cells BGC-823, human prostate cancer cells PC-3, human chronic leukemia cells K562, human lymphoma cells U937, human liver cancer cells SMMC7721 and HepG2, human colon cancer cells HT29, human pancreatic cancer cells PANC-1 and BxPC3, human cervical cancer Hela cell lines, human brain tumor cells Daoy, human neuroma cells D54 and human oral epidermoid cancer cells KBV200 line with strong drug resistance, mouse melanoma cells B16, and highly metastatic Lewis lung cancer cell lines were purchased from American Type Culture Collection of the U.S. These cells were cultured with DMEM and RPMI-1640 culture solutions separately.
(§2) The procedure was as follows:
(§3) (1) 0.25% trypsin was used to digest cancer cells in a logarithmic growth phase to prepare a single-cell suspension, the concentration of cells was adjusted to 5×10^4/mL, and the adjusted suspension was inoculated into a 96-well culture plate with 100 μl per well;
(§4) (2) The culture plate was transferred into a 37° C. incubator with a saturated humidity and 5% of CO2 and cultured for 24 h; the compounds and the intermediates thereof obtained in embodiments 1-7 and the compound as represented by formula (IIIa) or the positive control anti-cancer drug with the concentration of 1-1000 μM/L were added to enable the final concentration to be 0.1-1500 μM/L. Control wells (only added with 200 μl of cell suspension) and drug-free blank control wells (containing the solvent of 0.01% DMSO) were set, each group included 8 wells, and the plate was placed into the 37° C. incubator with saturated humidity and 5% of CO2 for culturing;
(§5) (3) The 96-well plate was taken out at 48 h and 72 h after dosing, the original culture medium was carefully removed by suction, 100 μl of serum-free DMEM culture medium and 10 μl of MTT (5 mg/mL) solution were added in each well. The plate was continuously cultured for another 4 h and then the culture was terminated;
(§6) (4) The supernatant in the wells was carefully removed by suction, each well was added with 150 μl of DMSO and shaked at room temperature for 10-15 min to fully dissolve crystals.
(§7) (5) Colorimetric analysis: the wavelength was selected as 570 nm, the light absorbance (A value) of each well was determined on the microplate reader and the results were recorded; the experiment was repeated for three times;
(§8) (6) the experimental results were calculated according to the following formula: relative survival rate=(A value of each experimental group/A value of cell control group)×100%
(§9) Calculation of median-effect concentration (IC50, namely the drug concentration at which the inhibition rate is 50%, also known as half inhibitory concentration):
(§10) IC50 of the detected component was calculated by using a regression equation.

For test [2], the system named is human liver cancer cells HepG2. Nature of the test: MTT growth inhibition, HepG2 cells. The class given is cell-based. Particulars: 72 h after treatment, read-out: Drug concentration (IC50) at which 50% cancer cells survived.
From the text: as §1, §2, §3, §4, §5, §6, §7, §8, §9, §10

Test [3] deals with highly metastatic Lewis lung cancer cell lines. As to the kind of experiment: MTT growth inhibition, LLC cells. It counts as cell-based, mouse. The note with it: Mus musculus, Lewis lung carcinoma, 72 h after treatment, read-out: Drug concentration (IC50) at which 50% cancer cells survived.
From the text: as §1, §2, §3, §4, §5, §6, §7, §8, §9, §10

Test [4] deals with human liver cancer cells SMMC7721. As to the kind of experiment: MTT growth inhibition, SMMC7721 cells. The class given is cell-based. The note with it: SMMC-7721, S-7721 (SMMC7721), 72 h after treatment, read-out: Drug concentration (IC50) at which 50% cancer cells survived.
From the text: as §1, §2, §3, §4, §5, §6, §7, §8, §9, §10

In test [5] the test system is mouse melanoma cells B16. As to the kind of experiment: MTT growth inhibition, B16 cells. It counts as cell-based. The note with it: Mus musculus, 72 h after treatment, read-out: Drug concentration (IC50) at which 50% cancer cells survived.
From the text: as §1, §2, §3, §4, §5, §6, §7, §8, §9, §10

The subject of test [6] is human breast cancer cells MCF-7. As to the kind of experiment: MTT growth inhibition, MCF-7 cells. The class given is cell-based. Particulars: MCF7, 72 h after treatment, read-out: Drug concentration (IC50) at which 50% cancer cells survived.
From the text: as §1, §2, §3, §4, §5, §6, §7, §8, §9, §10

For test [7], the system named is human colon cancer cells HT29. As to the kind of experiment: MTT growth inhibition, HT29 cells. It counts as cell-based. Particulars: HT-29, 72 h after treatment, read-out: Drug concentration (IC50) at which 50% cancer cells survived.
From the text: as §1, §2, §3, §4, §5, §6, §7, §8, §9, §10

For test [8], the system named is human gastric cancer cells BGC-823. As to the kind of experiment: MTT growth inhibition, BGC-823 cells. Particulars: 72 h after treatment, read-out: Drug concentration (IC50) at which 50% cancer cells survived. It counts as cell-based.
From the text: as §1, §2, §3, §4, §5, §6, §7, §8, §9, §10

In test [9] the test system is human lung cancer cells H460. Nature of the test: MTT growth inhibition, H460 cells. The class given is cell-based. The note with it: NCI-H460, 72 h after treatment, read-out: Drug concentration (IC50) at which 50% cancer cells survived.
From the text: as §1, §2, §3, §4, §5, §6, §7, §8, §9, §10

The test system of test [10] is human pancreatic cancer cells BxPC3. Nature of the test: MTT growth inhibition, BxPc3 cells. The class given is cell-based. Particulars: Homo sapiens, BXPC-3, 72 h after treatment, read-out: Drug concentration (IC50) at which 50% cancer cells survived.
From the text: as §1, §2, §3, §4, §5, §6, §7, §8, §9, §10

The test system of test [11] is human breast cancer cells MDA-MB-231. Nature of the test: MTT growth inhibition, MDA-MB-231 cells. The note with it: 72 h after treatment, read-out: Drug concentration (IC50) at which 50% cancer cells survived. It counts as cell-based.
From the text: as §1, §2, §3, §4, §5, §6, §7, §8, §9, §10

The subject of test [12] is human oral epidermoid cancer cells KBV200. As to the kind of experiment: MTT growth inhibition, KBV200 cells. The class given is cell-based. The note with it: 72 h after treatment, read-out: Drug concentration (IC50) at which 50% cancer cells survived.
From the text: as §1, §2, §3, §4, §5, §6, §7, §8, §9, §10

Test [13] relates to human cervical cancer Hela cell lines. Nature of the test: MTT growth inhibition, Hela cells. The class given is cell-based. The note with it: Homo sapiens, 72 h after treatment, read-out: Drug concentration (IC50) at which 50% cancer cells survived.
From the text: as §1, §2, §3, §4, §5, §6, §7, §8, §9, §10

Test [14] concerns human neuroma cells D54. Nature of the test: MTT growth inhibition, D54 cells. The class given is cell-based. The note with it: Homo sapiens, 72 h after treatment, read-out: Drug concentration (IC50) at which 50% cancer cells survived.
From the text: as §1, §2, §3, §4, §5, §6, §7, §8, §9, §10

The test system of test [15] is human lymphoma cells U937. As to the kind of experiment: MTT growth inhibition, U937 cells. It counts as cell-based. The note with it: Homo sapiens, U-937, 72 h after treatment, read-out: Drug concentration (IC50) at which 50% cancer cells survived. As to the method:
as §2, §5, §6, §7, §8, §10

For test [16], the system named is human brain tumor cells Daoy. Nature of the test: MTT growth inhibition, Daoy cells. It counts as cell-based. The note with it: Homo sapiens, 72 h after treatment, read-out: Drug concentration (IC50) at which 50% cancer cells survived.
From the text: as §1, §2, §3, §4, §5, §6, §7, §8, §9, §10

Test [17] relates to human prostate cancer cells PC-3. Nature of the test: MTT growth inhibition, PC-3 cells. The class given is cell-based. The note with it: 72 h after treatment, read-out: Drug concentration (IC50) at which 50% cancer cells survived.
From the text: as §1, §2, §3, §4, §5, §6, §7, §8, §9, §10

The subject of test [18] is human chronic leukemia cells K562. Nature of the test: MTT growth inhibition, K562 cells. The class given is cell-based. Particulars: 72 h after treatment, read-out: Drug concentration (IC50) at which 50% cancer cells survived.
From the text: as §1, §2, §3, §4, §5, §6, §7, §8, §9, §10

Test [19] has as its system Caski human cervical cancer cells. Nature of the test: MTT growth inhibition, Caski cells. The class given is cell-based. Particulars: Ca-Ski, 72 h after treatment, read-out: Drug concentration (IC50) at which 50% cancer cells survived.
Test [20] relates to human pancreatic cancer cells PANC-1. As to the kind of experiment: MTT growth inhibition, PANC-1 cells. It counts as cell-based. The note with it: 72 h after treatment, read-out: Drug concentration (IC50) at which 50% cancer cells survived.
From the text: as §1, §2, §3, §4, §5, §6, §7, §8, §9, §10

The structures appear in SMILES notation.

Take `O=C(O)c1cc2cc(Cl)ccc2oc1=O` [Compound IIIc, 6-chlorocoumarin-3-carboxylic acid]: the IC50 in [1] worked out at 600 ± 30 µM; in test [2] it was 300 µM; in test [3] it was 400 µM; in [4] it was 500 µM; in test [5], 600 µM; in test [6], 300 µM. Besides, the IC50 in [7] came to 700 µM; in test [8], 300 µM; in test [9], 350 ± 50 µM; in test [10] it was 500 µM; in [11], 500 µM; in test [12], 400 µM. Also, the IC50 in test [13] is 600 µM; in [14] it was 300 µM; in test [15], 500 µM; in [16], 400 µM; in test [17], 500 µM; in test [18], 600 µM. Moreover, the IC50 was determined as 400 µM in [19] and 500 µM in test [20].

Take `O=C(O)c1cc2cc(F)ccc2oc1=O` [Compound IIIe, 6-fluorocoumarin-3-carboxylic acid]: the IC50 in test [1] was found to be 450 µM; in test [2], 400 µM; in test [3] it was 380 µM; in [4], 490 µM; in [5], 600 µM; in test [6] it was 390 µM. The IC50 in [7] amounted to 570 µM; in test [8], 700 µM; in test [9], 450 µM; in test [10] it was 500 µM; in test [11] it was 520 µM; in test [12], 300 µM. Besides, the IC50 in test [13] was found to be 600 µM; in test [14] it was 300 µM; in test [15], 560 µM; in test [16] it was 500 µM; in [17] it was 520 µM; in test [18], 300 µM. Also, the IC50 in test [19] came to 380 µM; in test [20], 480 µM.

Take `O=C(O)c1cc2cc([N+](=O)[O-])ccc2oc1=O` [Compound IIIf, 6-nitrocoumarin-3-carboxylic acid]: the IC50 in [1] is 580 µM; in [2], 360 µM; in test [3], 370 µM; in [4], 460 µM; in [5], 670 µM; in test [6] it was 400 µM. Moreover, the IC50 in [7] amounted to 460 µM; in test [8], 650 µM; in test [9], 460 µM; in test [10] it was 114 µM; in [11], 470 µM; in test [12] it was 300 µM. Further, the IC50 worked out at 580 µM in [13]; 300 µM in test [14]; 450 µM in test [15]; 400 µM in test [16]; 530 µM in [17]; 300 µM in [18]. Besides, the IC50 in test [19] was 300 µM; in test [20], 430 µM.

Turning to `O=C(O)c1cc2cc(Cl)cc(Cl)c2oc1=O` [Compound IIIg, 6,8-dichloro-coumarin-3-carboxylic acid], the IC50 amounted to 330 µM in test [1]; 420 µM in [2]; 250 µM in test [3]; 490 µM in [4]; 500 µM in test [5]; 410 µM in test [6]. Moreover, the IC50 in test [7] was found to be 480 µM; in test [8], 380 µM; in test [9] it was 400 µM; in [10] it was 300 µM; in test [11], 460 µM; in [12] it was 300 µM. Further, the IC50 in test [13] stood at 260 µM; in test [14], 300 µM; in test [15], 350 µM; in test [16], 350 µM; in [17] it was 310 µM; in [18], 420 µM. Moreover, the IC50 in [19] was determined as 250 µM; in [20] it was 430 µM.

Source of the values: patent publication US9518038B2, “Condensation product of theanine derivative and carboxylic acid coumarin derivative, its intermediate, preparation method and use thereof” (SHANDONG YINGDONG YINGHAO BIOTECHNOLOGY, INC., priority 2012, dated 2016).
